# Results reported in ChEMBL document CHEMBL3991601, “The target landscape of clinical kinase drugs” (Science, 2017).
# pKd: −log10 of the molar value. Active and inactive are the calls of the source. Cut-off read from the data, not from the text of the source, for most assays here: actives have a measured Kd and inactives only a lower limit.
# Molecular target: AP2-associated protein kinase 1 (Homo sapiens, UniProt Q2M2I8)
# Note: in the data inactive means no Kd found up to 30 µM.
# Sequence of AP2-associated protein kinase 1 (Q2M2I8 whole entry): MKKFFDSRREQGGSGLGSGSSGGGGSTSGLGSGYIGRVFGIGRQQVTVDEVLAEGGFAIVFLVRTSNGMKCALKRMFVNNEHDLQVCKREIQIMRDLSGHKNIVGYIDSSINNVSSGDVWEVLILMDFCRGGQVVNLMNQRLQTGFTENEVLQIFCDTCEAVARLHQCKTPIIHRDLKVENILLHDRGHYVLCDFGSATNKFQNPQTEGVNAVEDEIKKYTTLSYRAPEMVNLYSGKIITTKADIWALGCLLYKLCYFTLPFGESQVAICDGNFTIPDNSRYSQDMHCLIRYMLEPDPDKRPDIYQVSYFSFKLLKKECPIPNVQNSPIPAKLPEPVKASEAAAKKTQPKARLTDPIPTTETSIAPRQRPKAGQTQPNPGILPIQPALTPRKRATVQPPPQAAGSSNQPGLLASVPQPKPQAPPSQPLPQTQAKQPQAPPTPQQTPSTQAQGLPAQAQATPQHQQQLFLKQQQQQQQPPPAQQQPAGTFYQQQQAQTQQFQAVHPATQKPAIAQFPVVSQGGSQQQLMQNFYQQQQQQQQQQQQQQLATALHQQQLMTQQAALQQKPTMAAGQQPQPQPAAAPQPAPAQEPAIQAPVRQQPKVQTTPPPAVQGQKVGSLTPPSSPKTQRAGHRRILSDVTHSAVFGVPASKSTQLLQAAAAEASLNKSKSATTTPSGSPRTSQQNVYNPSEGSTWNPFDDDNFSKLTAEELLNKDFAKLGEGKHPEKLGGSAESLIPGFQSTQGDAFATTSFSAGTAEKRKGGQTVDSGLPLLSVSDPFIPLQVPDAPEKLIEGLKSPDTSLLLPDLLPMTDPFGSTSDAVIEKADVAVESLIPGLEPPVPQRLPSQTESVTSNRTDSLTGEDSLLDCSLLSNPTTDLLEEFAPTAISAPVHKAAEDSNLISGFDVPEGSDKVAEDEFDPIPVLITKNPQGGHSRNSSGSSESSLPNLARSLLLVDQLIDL
row,SMILES,Kd
1,CNC(=O)c1ccc(-c2cnc3ncc(Cc4ccc5ncccc5c4)n3n2)cc1F [CAPMATINIB],> 30 µM (inactive)
2,O=C(c1ccc(F)c(F)c1Nc1ccc(I)cc1F)N1CC(O)([C@@H]2CCCCN2)C1 [COBIMETINIB],> 30 µM (inactive)
3,Cc1nc(N)sc1-c1ccnc(Nc2ccc(N3CCOCC3)cc2)n1 [CYC-116],0.006 µM (active)
4,COc1cc2nccc(Oc3ccc(NC(=O)NC4CC4)c(Cl)c3)c2cc1C(N)=O [LENVATINIB],> 30 µM (inactive)
5,Cn1cc(-c2ccc(F)c(C(F)(F)F)c2)nc1C1CCN(c2ncnc3[nH]ncc23)CC1 [LY-2584702],> 30 µM (inactive)
6,Cc1ccc(-n2nc(C(C)(C)C)cc2NC(=O)NCc2cc(F)ccc2Oc2ccc3c(cnn3CCO)c2)cc1 [PEXMETINIB],> 30 µM (inactive)
7,CNC(=O)c1ccc(C)c(-n2c(C)cc(OCc3ccc(F)cc3F)c(Br)c2=O)c1 [PH-797804],> 30 µM (inactive)
8,C=CC(=O)N1CCC(Oc2cc3c(Nc4ccc(Cl)c(Cl)c4F)ncnc3cc2OC)CC1 [POZIOTINIB],> 30 µM (inactive)
9,CN(C)C(=O)c1cc2cnc(Nc3ccc(N4CCNCC4)cn3)nc2n1C1CCCC1 [RIBOCICLIB],> 30 µM (inactive)
10,O=C(Nc1cccc(Cl)c1)Nc1ncc(CCNc2ncnc3ccsc23)s1 [SNS-314],> 30 µM (inactive)

# Molecular target: Mitogen-activated protein kinase 10 (Homo sapiens, UniProt P53779)
# Sequence (P53779 whole entry): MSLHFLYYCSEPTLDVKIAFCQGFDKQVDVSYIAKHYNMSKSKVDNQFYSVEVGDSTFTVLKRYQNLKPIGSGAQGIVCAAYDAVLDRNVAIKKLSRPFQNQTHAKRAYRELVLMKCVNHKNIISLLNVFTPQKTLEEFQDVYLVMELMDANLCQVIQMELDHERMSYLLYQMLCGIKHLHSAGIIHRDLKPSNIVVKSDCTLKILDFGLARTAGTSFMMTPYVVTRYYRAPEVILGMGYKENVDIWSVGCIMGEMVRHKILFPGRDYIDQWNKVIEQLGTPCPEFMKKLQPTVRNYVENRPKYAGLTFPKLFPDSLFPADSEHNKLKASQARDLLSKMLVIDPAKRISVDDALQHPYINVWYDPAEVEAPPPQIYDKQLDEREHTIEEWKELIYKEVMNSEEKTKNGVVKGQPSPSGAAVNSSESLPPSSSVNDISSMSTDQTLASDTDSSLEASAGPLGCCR
SMILES,Kd,pKd
CNC(=O)c1ccc(-c2cnc3ncc(Cc4ccc5ncccc5c4)n3n2)cc1F [CAPMATINIB],> 30 µM (inactive),–
O=C(c1ccc(F)c(F)c1Nc1ccc(I)cc1F)N1CC(O)([C@@H]2CCCCN2)C1 [COBIMETINIB],> 30 µM (inactive),–
Cc1nc(N)sc1-c1ccnc(Nc2ccc(N3CCOCC3)cc2)n1 [CYC-116],0.147 µM (active),–
Cc1cc(Nc2cc(N3CCN(C)CC3)nc(/C=C/c3ccccc3)n2)n[nH]1 [ENMD-2076],> 30 µM (inactive),–
Cn1cc(-c2ccc(F)c(C(F)(F)F)c2)nc1C1CCN(c2ncnc3[nH]ncc23)CC1 [LY-2584702],> 30 µM (inactive),–
Cc1ccc(-n2nc(C(C)(C)C)cc2NC(=O)NCc2cc(F)ccc2Oc2ccc3c(cnn3CCO)c2)cc1 [PEXMETINIB],–,6.71
CNC(=O)c1ccc(C)c(-n2c(C)cc(OCc3ccc(F)cc3F)c(Br)c2=O)c1 [PH-797804],> 30 µM (inactive),–
C=CC(=O)N1CCC(Oc2cc3c(Nc4ccc(Cl)c(Cl)c4F)ncnc3cc2OC)CC1 [POZIOTINIB],> 30 µM (inactive),–
CN(C)C(=O)c1cc2cnc(Nc3ccc(N4CCNCC4)cn3)nc2n1C1CCCC1 [RIBOCICLIB],> 30 µM (inactive),–

# Molecular target: cAMP-dependent protein kinase type II-alpha regulatory subunit (Homo sapiens, UniProt P13861)
# Sequence (P13861 whole entry): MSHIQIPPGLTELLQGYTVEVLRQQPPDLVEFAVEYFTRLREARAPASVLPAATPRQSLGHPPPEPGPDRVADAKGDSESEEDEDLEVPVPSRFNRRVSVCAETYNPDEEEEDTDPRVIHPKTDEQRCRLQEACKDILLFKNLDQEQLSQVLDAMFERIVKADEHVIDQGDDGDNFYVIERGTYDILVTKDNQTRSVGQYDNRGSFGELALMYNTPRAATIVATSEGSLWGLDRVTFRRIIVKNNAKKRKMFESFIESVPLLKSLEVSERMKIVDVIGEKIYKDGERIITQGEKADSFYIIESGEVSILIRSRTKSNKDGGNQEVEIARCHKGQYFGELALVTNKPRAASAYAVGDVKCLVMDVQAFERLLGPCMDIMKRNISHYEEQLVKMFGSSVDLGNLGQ
SMILES,Kd,pKd
CNC(=O)c1ccc(-c2cnc3ncc(Cc4ccc5ncccc5c4)n3n2)cc1F [CAPMATINIB],> 30 µM (inactive),–
O=C(c1ccc(F)c(F)c1Nc1ccc(I)cc1F)N1CC(O)([C@@H]2CCCCN2)C1 [COBIMETINIB],> 30 µM (inactive),–
CN1CCN(c2ccc3nc(-c4c(N)c5c(F)cccc5[nH]c4=O)[nH]c3c2)CC1 [DOVITINIB],> 30 µM (inactive),–
Cc1cc(Nc2cc(N3CCN(C)CC3)nc(/C=C/c3ccccc3)n2)n[nH]1 [ENMD-2076],> 30 µM (inactive),–
CCn1c(-c2nonc2N)nc2c(C#CC(C)(C)O)ncc(OC[C@H]3CCCNC3)c21 [GSK-690693],–,7.28
COc1cc2nccc(Oc3ccc(NC(=O)NC4CC4)c(Cl)c3)c2cc1C(N)=O [LENVATINIB],> 30 µM (inactive),–
Cc1cn(-c2cc(NC(=O)c3ccc(C)c(Nc4nccc(-c5cccnc5)n4)c3)cc(C(F)(F)F)c2)cn1 [NILOTINIB],> 30 µM (inactive),–
O=C(Nc1cccc(Cl)c1)Nc1ncc(CCNc2ncnc3ccsc23)s1 [SNS-314],> 30 µM (inactive),–
Nc1nc(N)c2nc(-c3cccc(O)c3)c(-c3cccc(O)c3)nc2n1 [TG100-115],> 30 µM (inactive),–

# Molecular target: T1, Glycogen phosphorylase, brain form (Homo sapiens, UniProt P11216)
# T1 sequence (P11216 whole entry): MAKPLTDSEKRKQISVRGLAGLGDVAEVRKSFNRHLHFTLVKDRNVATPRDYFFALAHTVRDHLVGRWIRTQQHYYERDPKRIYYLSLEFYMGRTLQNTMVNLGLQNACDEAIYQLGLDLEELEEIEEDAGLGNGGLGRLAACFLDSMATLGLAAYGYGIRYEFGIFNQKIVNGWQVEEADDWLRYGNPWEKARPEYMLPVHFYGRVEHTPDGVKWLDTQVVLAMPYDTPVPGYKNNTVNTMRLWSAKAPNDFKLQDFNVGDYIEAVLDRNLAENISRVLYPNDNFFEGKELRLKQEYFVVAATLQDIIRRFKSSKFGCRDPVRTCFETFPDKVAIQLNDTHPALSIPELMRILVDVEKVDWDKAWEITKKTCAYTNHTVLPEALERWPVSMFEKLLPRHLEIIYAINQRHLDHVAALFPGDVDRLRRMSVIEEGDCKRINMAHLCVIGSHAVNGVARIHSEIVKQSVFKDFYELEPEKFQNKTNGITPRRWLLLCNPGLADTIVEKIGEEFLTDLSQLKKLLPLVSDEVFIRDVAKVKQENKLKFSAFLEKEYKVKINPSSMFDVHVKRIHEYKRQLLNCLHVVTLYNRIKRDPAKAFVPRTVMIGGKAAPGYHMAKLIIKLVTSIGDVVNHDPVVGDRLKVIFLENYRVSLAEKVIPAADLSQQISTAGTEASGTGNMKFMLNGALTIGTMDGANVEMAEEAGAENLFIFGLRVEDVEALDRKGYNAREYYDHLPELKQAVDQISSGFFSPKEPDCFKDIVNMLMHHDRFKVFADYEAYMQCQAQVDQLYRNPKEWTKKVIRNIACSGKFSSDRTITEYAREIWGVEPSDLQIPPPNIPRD
row,SMILES,Kd
1,CNC(=O)c1ccc(-c2cnc3ncc(Cc4ccc5ncccc5c4)n3n2)cc1F [CAPMATINIB],> 30 µM (inactive)
2,O=C(c1ccc(F)c(F)c1Nc1ccc(I)cc1F)N1CC(O)([C@@H]2CCCCN2)C1 [COBIMETINIB],> 30 µM (inactive)
3,Cc1nc(N)sc1-c1ccnc(Nc2ccc(N3CCOCC3)cc2)n1 [CYC-116],> 30 µM (inactive)
4,CN1CCN(c2ccc3nc(-c4c(N)c5c(F)cccc5[nH]c4=O)[nH]c3c2)CC1 [DOVITINIB],> 30 µM (inactive)
5,Cc1cc(Nc2cc(N3CCN(C)CC3)nc(/C=C/c3ccccc3)n2)n[nH]1 [ENMD-2076],> 30 µM (inactive)
6,CCn1c(-c2nonc2N)nc2c(C#CC(C)(C)O)ncc(OC[C@H]3CCCNC3)c21 [GSK-690693],> 30 µM (inactive)
7,COc1cc2nccc(Oc3ccc(NC(=O)NC4CC4)c(Cl)c3)c2cc1C(N)=O [LENVATINIB],> 30 µM (inactive)
8,Cn1cc(-c2ccc(F)c(C(F)(F)F)c2)nc1C1CCN(c2ncnc3[nH]ncc23)CC1 [LY-2584702],> 30 µM (inactive)
9,Cc1ccc(-n2nc(C(C)(C)C)cc2NC(=O)NCc2cc(F)ccc2Oc2ccc3c(cnn3CCO)c2)cc1 [PEXMETINIB],> 30 µM (inactive)
10,CNC(=O)c1ccc(C)c(-n2c(C)cc(OCc3ccc(F)cc3F)c(Br)c2=O)c1 [PH-797804],> 30 µM (inactive)
11,C=CC(=O)N1CCC(Oc2cc3c(Nc4ccc(Cl)c(Cl)c4F)ncnc3cc2OC)CC1 [POZIOTINIB],> 30 µM (inactive)
12,CN(C)C(=O)c1cc2cnc(Nc3ccc(N4CCNCC4)cn3)nc2n1C1CCCC1 [RIBOCICLIB],> 30 µM (inactive)
13,O=C(Nc1cccc(Cl)c1)Nc1ncc(CCNc2ncnc3ccsc23)s1 [SNS-314],> 30 µM (inactive)
14,Nc1nc(N)c2nc(-c3cccc(O)c3)c(-c3cccc(O)c3)nc2n1 [TG100-115],> 30 µM (inactive)

# Molecular target: T2, Serine/threonine-protein kinase TAO2 (Homo sapiens, UniProt Q9UL54)
# T2 sequence (Q9UL54 whole entry): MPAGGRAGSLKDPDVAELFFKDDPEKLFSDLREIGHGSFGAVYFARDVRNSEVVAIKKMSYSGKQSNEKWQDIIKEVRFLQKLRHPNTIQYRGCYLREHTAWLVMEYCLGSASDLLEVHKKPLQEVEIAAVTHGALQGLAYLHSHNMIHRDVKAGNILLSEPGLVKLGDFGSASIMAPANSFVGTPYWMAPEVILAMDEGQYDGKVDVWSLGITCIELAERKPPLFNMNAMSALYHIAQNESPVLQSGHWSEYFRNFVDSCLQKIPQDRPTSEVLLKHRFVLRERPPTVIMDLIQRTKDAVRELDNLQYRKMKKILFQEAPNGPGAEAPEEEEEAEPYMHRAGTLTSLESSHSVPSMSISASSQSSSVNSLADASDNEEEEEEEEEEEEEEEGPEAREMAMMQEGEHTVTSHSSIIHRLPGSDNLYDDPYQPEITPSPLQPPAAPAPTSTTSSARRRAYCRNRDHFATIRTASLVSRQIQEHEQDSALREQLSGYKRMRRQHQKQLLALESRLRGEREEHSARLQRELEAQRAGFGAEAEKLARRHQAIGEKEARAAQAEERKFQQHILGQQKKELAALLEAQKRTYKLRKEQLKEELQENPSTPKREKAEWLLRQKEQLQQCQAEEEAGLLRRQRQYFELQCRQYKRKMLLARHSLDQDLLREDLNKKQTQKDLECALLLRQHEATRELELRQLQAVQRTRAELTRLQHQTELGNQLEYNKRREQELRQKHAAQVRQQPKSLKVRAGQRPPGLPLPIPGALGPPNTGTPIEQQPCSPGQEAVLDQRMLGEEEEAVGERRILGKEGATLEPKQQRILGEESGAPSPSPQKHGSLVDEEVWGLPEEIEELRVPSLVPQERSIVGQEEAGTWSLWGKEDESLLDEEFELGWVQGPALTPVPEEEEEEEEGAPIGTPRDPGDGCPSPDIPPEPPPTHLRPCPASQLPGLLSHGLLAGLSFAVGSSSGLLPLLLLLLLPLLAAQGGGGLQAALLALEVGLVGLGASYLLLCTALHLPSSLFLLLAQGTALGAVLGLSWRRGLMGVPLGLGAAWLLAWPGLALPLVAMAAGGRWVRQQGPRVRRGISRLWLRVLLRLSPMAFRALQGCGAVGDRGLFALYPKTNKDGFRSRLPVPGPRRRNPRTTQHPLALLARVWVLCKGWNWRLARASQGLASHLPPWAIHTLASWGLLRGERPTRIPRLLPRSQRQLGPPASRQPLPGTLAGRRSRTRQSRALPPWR
row,SMILES,Kd
1,CNC(=O)c1ccc(-c2cnc3ncc(Cc4ccc5ncccc5c4)n3n2)cc1F [CAPMATINIB],> 30 µM (inactive)
2,O=C(c1ccc(F)c(F)c1Nc1ccc(I)cc1F)N1CC(O)([C@@H]2CCCCN2)C1 [COBIMETINIB],> 30 µM (inactive)
3,COc1cc2nccc(Oc3ccc(NC(=O)NC4CC4)c(Cl)c3)c2cc1C(N)=O [LENVATINIB],> 30 µM (inactive)
4,Cn1cc(-c2ccc(F)c(C(F)(F)F)c2)nc1C1CCN(c2ncnc3[nH]ncc23)CC1 [LY-2584702],> 30 µM (inactive)
5,Cc1ccc(-n2nc(C(C)(C)C)cc2NC(=O)NCc2cc(F)ccc2Oc2ccc3c(cnn3CCO)c2)cc1 [PEXMETINIB],> 30 µM (inactive)
6,CNC(=O)c1ccc(C)c(-n2c(C)cc(OCc3ccc(F)cc3F)c(Br)c2=O)c1 [PH-797804],> 30 µM (inactive)
7,C=CC(=O)N1CCC(Oc2cc3c(Nc4ccc(Cl)c(Cl)c4F)ncnc3cc2OC)CC1 [POZIOTINIB],> 30 µM (inactive)
8,CN(C)C(=O)c1cc2cnc(Nc3ccc(N4CCNCC4)cn3)nc2n1C1CCCC1 [RIBOCICLIB],> 30 µM (inactive)
9,O=C(Nc1cccc(Cl)c1)Nc1ncc(CCNc2ncnc3ccsc23)s1 [SNS-314],> 30 µM (inactive)
